Tested on: Rhizoctonia solani
Assay: Soybean seed treatment test in soil contaminated by Rhizoctonia solani (disease control efficacy)
Format: in vivo, Rhizoctonia solani on soybean (variety: Natto shoryu)
Conditions: carboxamide compound alone 0.2 g/100 kg of seeds, no thiodicarb, soybean cultivated 20 days in soil contaminated by Rhizoctonia solani, efficacy vs non-treated plot
Method: A cyclohexanone solution (100 microL) containing prescribed amount (weight) of a test compound was applied on seeds of soybean (variety:Natto shoryu) (10 g) by using a rotary apparatus for seed treatment (Seed dresser, manufactured by Hans-Ulrich Hege GmbH).
One day after the application, plastic pot was filled with soil contaminated by Rhizoctonia solani, and the seeds treated with the test compounds were seeded in the soil and cultivated in a glass-greenhouse for 20 days (hereinafter referred to as “treated plot”).
Thereafter, the presence of disease caused by Rhizoctonia solani in the young plants which germinated from each seed was observed and disease severity was calculated according to the following calculation formula (1).
On the other hand, seeds of soybean which were not treated as above were cultivated in the same way as above (hereinafter referred to as “non-treated plot”) and the disease severity in “non-treated plot” was calculated in the same way as the above “treated plot”. On the basis of the above disease severity in “treated plot” and “non-treated plot”, efficacy in “treated plot” was evaluated according to the following calculation formula (2). […]

## CC1CC(C)(C)c2cccc(NC(=O)c3cn(C)nc3C(F)F)c21 (stereo not shown) [carboxamide compound (1)]
  efficacy (%): 47.4%

— patent US9363998B2, “Pesticidal composition and its use” (SUMITOMO CHEMICAL COMPANY, LIMITED, priority 2010, dated 2016)
